# Source: patent US11452704B2, “Prevention and treatment of muscle wasting with ketone supplementation” (UNIVERSITY OF SOUTH FLORIDA, priority 2017, dated 2022)
# Tests used:
# [1] = tested on: cancer induced tissue wasting (muscle and fat), VM-M3 model of metastatic cancer; assay: VM-M3 model of metastatic cancer: muscle mass as ratio of total calories consumed (Example 2); assay type: in vivo, VM/Dk animals; details: with standard diet, vs standard diet or ketogenic diet; 21 days post-cancer implantation; FIG. 1
# Excerpt: FIG. 1 depicts ratios of muscle mass to amount of calories consumed within a cancer cachexia VM-M3 modeling system, specifically with subjects having been fed standard diet, ketogenic diet, and ketone diester.
# Taking a model system of cancer induced tissue wasting (muscle and fat), R,S 1,3 butanediol diacetoacetate+standard diet, ketogenic diet, and standard diet were applied. VM/Dk animals were matched for sex, age, and bodyweight to ensure controlled groups. Animals were implanted with VM-M3 cell in the left flank to create the VM-M3 model of metastatic cancer. Once implanted, primary tumor forms at site of implantation, and then cells metastasize to all major organ systems that results in tissue wasting. Animals were harvested at 21 days post-cancer implantation to evaluate tissue wasting. […] This confirms that R,S 1,3 butanediol diacetoacetate is an anti-catabolic/anti-tissue wasting compound.
# [2] = tested on: tissue catabolism/atrophy/cachexia that is induced by LPS; assay: LPS-induced catabolism, pair fed animals, multiple treatments (Example 6); assay type: in vivo
# Experimental: FIG. 5A depicts the difference in bodyweight following Lipopolysaccharide administration with multiple treatments with control or ketone supplementation with calories controlled across groups.
# FIG. 5B depicts the difference in percent bodyweight following Lipopolysaccharide administration with multiple treatments with control or ketone supplementation with calories controlled across groups.
# FIG. 5A-B depicts weight matched animals who were administered 10 mg/kg LPS intraperitoneally. After intraperitoneal LPS injection, 4 mL/kg of water (n=4) or R/S 1,3 Butanediol Acetoacetate Diester (Ketone Diester; n=4) were intragastrically gavaged into animals. Animals were pair fed to ensure calories were equivalent between groups to remove influence of caloric intake on tissue catabolism/atrophy/cachexia. […] This effect was retained for a minimum of 2 days following catabolic/atrophy/cachexia stimulus (10 mg/kg LPS intraperitoneal). The ability of Ketone Diester to attenuate catabolism was independent of caloric intake/anorexia induced by LPS.
# [3] = tested on: tissue catabolism/atrophy/cachexia that is induced by LPS; assay: LPS-induced catabolism, single gavage, bodyweight tracked for 2 weeks (Example 4); assay type: in vivo, VM/Dk mice
# Excerpt: FIG. 3A depicts acute percent bodyweight changes that accompany Lipopolysaccharide after treatment with control or ketone supplementation in VM/Dk mice.
# FIG. 3B depicts acute bodyweight changes that accompany Lipopolysaccharide after treatment with control or ketone supplementation in VM/Dk mice.
# FIG. 3C depicts chronic percent bodyweight changes that accompany Lipopolysaccharide after treatment with control or ketone supplementation in VM/Dk mice.
# FIG. 3D depicts the difference in bodyweight with control treatment at baseline versus each day following Lipopolysaccharide treatment.
# FIG. 3E depicts the difference in bodyweight with ketone supplement treatment at baseline versus each day following Lipopolysaccharide treatment.
# FIGS. 3A-E depict results from Weight matched animals who were administered 10 mg/kg LPS intraperitoneally. After intraperitoneal LPS injection, 4 mL/kg of water (n=4) or R/S 1,3 Butanediol Acetoacetate Diester (Ketone Diester; n=5) were intragastrically gavaged into animals one time. Bodyweight and food intake were tracked for 2 weeks post LPS administration. […] FIG. 3D-E depicts animals administered water gavage post LPS were not able to recovery to baseline bodyweight levels until 11 days post LPS administration.
# [4] = tested on: anorexia induced by catabolic/atrophy/cachexic stimulus (LPS); assay: LPS-induced anorexia, food intake (Example 5); assay type: in vivo; details: 10 mg/kg LPS i.p.; one-time dose 4 mL/kg intragastric gavage vs water; FIG. 4A-B
# Experimental: FIG. 4A depicts the difference in anorexia symptoms following Lipopolysaccharide administration with treatment with control or ketone supplementation.
# FIG. 4B depicts the difference in caloric intake following Lipopolysaccharide administration with treatment with control or ketone supplementation.
# FIG. 4A-B depicts weight matched animals who were administered 10 mg/kg LPS intraperitoneally. After intraperitoneal LPS injection, 4 mL/kg of water (n=4) or R/S 1,3 Butanediol Acetoacetate Diester (Ketone Diester; n=5) were intragastrically gavaged into animals. Food Intake was tracted to determine if a one-time does of Ketone Diester was able to reduce anorexia experiences post catabolic/atrophy/cachexic stimulus (10 mg/kg LPS intraperitoneally).
# cancer cachexia (VM-M3) = assay: Cancer cachexia (VM-M3), skeletal muscle weight as ratio to baseline bodyweight (Example 7); assay type: in vivo; details: ketone diester in standard diet food at 30% by weight; 21 days post cancer injection; vs cancer on standard diet; FIG. 6A-B
# Excerpt: FIG. 6A depicts the difference in skeletal muscle weight following cancer cachexia administration (VM-M3) with control or ketone supplementation.
# FIG. 6B depicts the difference in skeletal muscle weight following cancer cachexia administration (VM-M3) with control or ketone supplementation.
# FIG. 6A-B depict weight matched animals who were split into 3 groups 1) Animals without cancer injected with vehicle on standard diet (Sham; n=11), 2) animals with cancer on standard diet (n=11), and 3) animals with cancer with ketone diester incorporated into the standard diet food at 30% by weight (n=11). Animals bodyweight was measured at baseline. Cancer groups were assessed in a validated model of cancer cachexia. At 21 days post vehicle or cancer injection, tissue were harvest and weighed. Skeletal Muscle weight was set as a ratio to baseline bodyweight to determine the differences in skeletal muscle tissue as compared to set pre-cancer timepoint.
smiles,measurement,setting,value
"CC(=O)CC(=O)OCCC(C)OC(=O)CC(C)=O (stereo not shown) [Ketone Diester, R/S 1,3 Butanediol Acetoacetate Diester]",percentage of muscle mass as a ratio of total calories consumed (Quad/Carcass/Absolute calories consumed),[1],substantially higher percentage of muscle mass compared to the amount of calories consumed
same,"tissue catabolism/atrophy/cachexia (bodyweight) induced by LPS, calories controlled","[2]; 10 mg/kg LPS i.p., 4 mL/kg gavage, multiple administrations, FIG. 5A-B",significantly attenuated tissue catabolism/atrophy/cachexia
same,duration for which the anti-catabolic effect was retained,[2]; following 10 mg/kg LPS intraperitoneal,≥ 2 days
same,bodyweight versus baseline on each day following LPS,"[3]; 10 mg/kg LPS i.p., 4 mL/kg gavage, FIG. 3E (water control recovered only at 11 days)",did not significantly reduced in bodyweight
same,attenuation of tissue catabolism/atrophy/cachexia induced by LPS,"[3]; 10 mg/kg LPS i.p., 4 mL/kg intragastric gavage one time, within 1st 24 hour post LPS, FIG. 3A",46%
same,attenuation of percentage of tissue catabolism/atrophy/cachexia induced by LPS,"[3]; 10 mg/kg LPS i.p., 4 mL/kg intragastric gavage one time, within 1st 24 hours post LPS, FIG. 3B",48%
same,chronic tissue catabolism (percent bodyweight change) compared to control,"[3]; multi-weeks post-LPS administration, FIG. 3C",significantly attenuated tissue catabolism compared to control
same,"anorexia (food intake, caloric intake) following LPS",[4],significantly reduced the anorexia
same,Gastrocnemius catabolism/atrophy/cachexia (muscle weight / baseline bodyweight),cancer cachexia (VM-M3),significantly attenuated
same,Quadricep catabolism/atrophy/cachexia (muscle weight / baseline bodyweight),cancer cachexia (VM-M3),significantly attenuated
